Patent US20200055839A1 (priority 2017, published 2020)
pEC50: −log10 of the molar value.

What follows are molecules tested on NL-RLuc virus (assay: Inhibition of HIV replication (NL-RLuc virus, luciferase readout in MT-2 cells)). Conditions: Human immunodeficiency virus 1, MT2, 120 h, MT-2 cells infected with NL-RLuc virus, 5 days of incubation, 10% FBS, at least 2 experiments.
Type: cell-based
Method in brief: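 EC50 derived via median effect equation from at least 2 experiments, using luciferase expression as virus-growth readout. Replication-competent NL-RLuc reporter virus (nef partly replaced by Renilla luciferase) infected MT-2 cells with serial compound dilutions; 5-day incubation in RPMI 1640 plus 10% FBS.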

SMILES	pEC50
Cc1nc(CN2CCC3(CCC3)CC2)c(-c2ccc(F)cc2)c(N2CCC(C)(C)CC2)c1[C@H](OC(C)(C)C)C(=O)O [Example 191, (2S)-2-[6-({7-Azaspiro[3.5]nonan-7-yl}methyl)-4-(4,4-dimethylpiperidin-1-yl)-5-(4-fluorophenyl)-2-methylpyridin-3-yl]-2-(tert-butoxy)acetic acid]	8.70
COc1ccc(-c2c(CN3CCC4(CCC4)CC3)nc(C)c([C@H](OC(C)(C)C)C(=O)O)c2N2CCC(C)(C)CC2)cc1 [Example 192, (2S)-2-[6-({7-Azaspiro[3.5]nonan-7-yl}methyl)-4-(4,4-dimethylpiperidin-1-yl)-5-(4-methoxyphenyl)-2-methylpyridin-3-yl]-2-(tert-butoxy)acetic acid]	9.00
Cc1nc(CN2CCC3(CCC3)CC2)c(-c2cc(F)c(F)c(F)c2)c(N2CCC(C)(C)CC2)c1[C@H](OC(C)(C)C)C(=O)O [Example 193, (2S)-2-[6-({7-Azaspiro[3.5]nonan-7-yl}methyl)-4-(4,4-dimethylpiperidin-1-yl)-2-methyl-5-(3,4,5-trifluorophenyl)pyridin-3-yl]-2-(tert-butoxy)acetic acid]	8.40
COc1c(F)cc(-c2c(CN3CCC4(CCC4)CC3)nc(C)c([C@H](OC(C)(C)C)C(=O)O)c2N2CCC(C)(C)CC2)cc1F [Example 194, (2S)-2-[6-({7-Azaspiro[3.5]nonan-7-yl}methyl)-5-(3,5-difluoro-4-methoxyphenyl)-4-(4,4-dimethylpiperidin-1-yl)-2-methylpyridin-3-yl]-2-(tert-butoxy)acetic acid]	9.22
Cc1nc(CN2CCC3(CCC3)CC2)c(-c2ccc(F)c(F)c2)c(N2CCC(C)(C)CC2)c1[C@H](OC(C)(C)C)C(=O)O [Example 195, (2S)-2-[6-({7-Azaspiro[3.5]nonan-7-yl}methyl)-5-(3,4-difluorophenyl)-4-(4,4-dimethylpiperidin-1-yl)-2-methylpyridin-3-yl]-2-(tert-butoxy)acetic acid]	9.00
COc1c(F)cc(-c2c(CN3CCC3)nc(C)c([C@H](OC(C)(C)C)C(=O)O)c2N2CCC(C)(C)CC2)cc1F [Example 196, (2S)-2-{6-[(Azetidin-1-yl)methyl]-5-(3,5-difluoro-4-methoxyphenyl)-4-(4,4-dimethylpiperidin-1-yl)-2-methylpyridin-3-yl}-2-(tert-butoxy)acetic acid]	7.72
COc1c(F)cc(-c2c(CN(C)C)nc(C)c([C@H](OC(C)(C)C)C(=O)O)c2N2CCC(C)(C)CC2)cc1F [Example 197, (2S)-2-(tert-Butoxy)-2-[5-(3,5-difluoro-4-methoxyphenyl)-6-[(dimethylamino)methyl]-4-(4,4-dimethylpiperidin-1-yl)-2-methylpyridin-3-yl]acetic acid]	7.96
COc1c(F)cc(-c2c(CN3CCCC3)nc(C)c([C@H](OC(C)(C)C)C(=O)O)c2N2CCC(C)(C)CC2)cc1F [Example 198, (2S)-2-(tert-Butoxy)-2-[5-(3,5-difluoro-4-methoxyphenyl)-4-(4,4-dimethylpiperidin-1-yl)-2-methyl-6-[(pyrrolidin-1-yl)methyl]pyridin-3-yl]acetic acid]	7.92
COc1c(F)cc(-c2c(CN3CCCCCCC3)nc(C)c([C@H](OC(C)(C)C)C(=O)O)c2N2CCC(C)(C)CC2)cc1F [Example 199, (2S)-2-{6-[(Azocan-1-yl)methyl]-5-(3,5-difluoro-4-methoxyphenyl)-4-(4,4-dimethylpiperidin-1-yl)-2-methylpyridin-3-yl}-2-(tert-butoxy)acetic acid]	8.40
CC1(C)CCN(c2c(-c3ccc(OCCc4ccc(F)cc4)cc3)cncc2[C@H](OC(C)(C)C)C(=O)O)CC1 [Example 200, (S)-2-(tert-Butoxy)-2-(4-(4,4-dimethylpiperidin-1-yl)-5-(4-(4-fluorophenethoxy)phenyl)pyridin-3-yl)acetic acid]	8.70
